Experimental data as given in ChEMBL document CHEMBL4000242, “Discovery of furan carboxylate derivatives as novel inhibitors of ATP-citrate lyase via virtual high-throughput screening” (Bioorg Med Chem Lett, 2017).
Activity calls are given as the source filed them. No cut-off for these calls is given here.

Columns and labels:
[1] = molecular target: T1, ATP-citrate synthase (Homo sapiens) (UniProt P53396); assay: Inhibition of ATP citrate lyase (unknown origin) at 10 uM using sodium citrate as substrate in presence of CoA/ATP by ADP-Glo luminescence assay relative to control
T1 sequence (whole entry): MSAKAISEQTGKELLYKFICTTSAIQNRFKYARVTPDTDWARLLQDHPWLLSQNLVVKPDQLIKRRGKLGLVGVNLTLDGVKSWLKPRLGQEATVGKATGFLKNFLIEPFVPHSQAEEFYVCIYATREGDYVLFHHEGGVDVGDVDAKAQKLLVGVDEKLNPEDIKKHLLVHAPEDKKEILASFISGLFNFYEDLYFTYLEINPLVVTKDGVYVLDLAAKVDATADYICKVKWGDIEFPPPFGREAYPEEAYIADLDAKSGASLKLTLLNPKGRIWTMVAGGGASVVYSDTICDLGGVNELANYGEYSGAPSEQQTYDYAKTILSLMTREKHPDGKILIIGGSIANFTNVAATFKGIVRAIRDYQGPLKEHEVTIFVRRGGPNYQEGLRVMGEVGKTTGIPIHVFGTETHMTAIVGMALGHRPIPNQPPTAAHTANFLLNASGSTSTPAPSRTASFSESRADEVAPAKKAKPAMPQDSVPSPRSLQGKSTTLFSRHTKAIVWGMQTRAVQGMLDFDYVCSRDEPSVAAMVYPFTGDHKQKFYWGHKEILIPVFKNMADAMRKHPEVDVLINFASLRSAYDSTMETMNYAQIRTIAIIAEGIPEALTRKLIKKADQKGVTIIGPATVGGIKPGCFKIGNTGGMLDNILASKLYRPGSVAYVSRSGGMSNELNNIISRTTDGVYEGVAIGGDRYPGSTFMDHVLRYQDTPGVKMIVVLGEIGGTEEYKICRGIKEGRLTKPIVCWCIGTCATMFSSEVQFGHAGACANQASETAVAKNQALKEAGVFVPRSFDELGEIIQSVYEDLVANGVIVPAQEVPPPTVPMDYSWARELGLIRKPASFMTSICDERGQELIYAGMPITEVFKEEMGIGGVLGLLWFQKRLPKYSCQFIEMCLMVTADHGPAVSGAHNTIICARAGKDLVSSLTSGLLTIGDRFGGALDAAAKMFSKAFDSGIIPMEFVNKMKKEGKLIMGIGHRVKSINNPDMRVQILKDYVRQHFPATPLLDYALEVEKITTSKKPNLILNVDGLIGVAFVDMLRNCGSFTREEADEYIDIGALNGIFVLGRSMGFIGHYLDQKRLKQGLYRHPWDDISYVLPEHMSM

[2] = molecular target: T1, ATP-citrate synthase (Homo sapiens); assay: Inhibition of ATP citrate lyase (unknown origin) at 100 uM using sodium citrate as substrate in presence of CoA/ATP by ADP-Glo luminescence assay relative to control
ATP-citrate synthase = molecular target: T2, ATP-citrate synthase (Homo sapiens, UniProt P53396); assay: Inhibition of ATP citrate lyase (unknown origin) using sodium citrate as substrate by ADP-Glo luminescence assay
T2 sequence (P53396 whole entry): T1 sequence (whole entry)

[3] = molecular target: T1, ATP-citrate synthase (Homo sapiens); assay: Competitive inhibition of ATP citrate lyase (unknown origin) using sodium citrate as substrate by ADP-Glo luminescence assay

Structure (SMILES) | inhibition [1] | inhibition [2] | IC50 (ATP-citrate synthase) | inhibition [3]
Cc1oc2c(cc(NS(=O)(=O)c3ccc(C(C)(C)C)cc3)c3ccccc32)c1C(=O)O | 16% | 59% |  | 
COc1ccc(-c2ccccc2)cc1NS(=O)(=O)c1cc(Cl)cc(Cl)c1O |  |  | 0.377 µM | 
Cc1ccc(S(=O)(=O)Nc2cc3c(C(=O)O)c(C)oc3c3ccccc23)cc1 | 12% | 42% |  | 
Cc1oc(C(=O)O)cc1COc1ccc2c3c(c(=O)oc2c1C)CCCC3 | 17% | 90% |  | 
Cc1oc(C(=O)O)cc1COc1ccc2c(oc(=O)c3ccccc32)c1C | 32% | 84% |  | 
O=C(O)c1ccc(COc2ccc3c(c2)oc(=O)c2ccccc23)o1 | 9% | 49% |  | 
Cc1oc(C(=O)O)cc1COc1ccc2c(c1)oc(=O)c1ccccc12 | 3% | 64% |  | 
Cc1oc2c(cc(NS(=O)(=O)c3ccc(F)cc3)c3ccccc32)c1C(=O)O | 28% | 95% |  | 
Cc1c(OCc2ccc(C(=O)O)o2)ccc2c3c(c(=O)oc12)CCCC3 | 18% | 88% |  | 
O=C(O)C[C@@](O)(C(=O)O)[C@H](O)C(=O)O |  |  |  | Active
Cc1oc2ccc(OC(C(=O)O)c3ccccc3)cc2c1C(=O)O (centres undefined) | 6% | 9% |  | 
CCCCCCc1cc2c3c(c(=O)oc2cc1OCc1cc(C(=O)O)oc1C)CCCC3 | 95% | 100% |  | 
O=C(O)C[C@@](O)(C[C@H](O)CCCCCCc1ccc(Cl)cc1Cl)C(=O)O |  |  |  | Active
Cc1oc(C(=O)O)cc1COc1ccc2c(C)c(Cc3ccccc3)c(=O)oc2c1 | 45% | 101% | 11.9 µM | 
CCc1ccc(S(=O)(=O)Nc2cc3c(C(=O)O)c(C)oc3c3ccccc23)cc1 | 42% | 97% | 13.8 µM | 
